In publication PMC5669199, “CM352 Reduces Brain Damage and Improves Functional Recovery in a Rat Model of Intracerebral Hemorrhage” (Journal of the American Heart Association: Cardiovascular …, 2017):

How the values were obtained:
Plasma protein binding = type: in vitro ADME; conditions: rat, read-out: Plasma prot binding (% unbound)
[1] = molecular target: bacterial collagenase type VII; assay: Collagenase activity assay (FALGPA substrate); type: biochemical; conditions: tested 10 nmol/L to 10 μmol/L; no significant effect
Description: Enzymatic assay of collagenase was performed using FALGPA (Sigma‐Aldrich Corp, St. Louis, MO) as substrate, according to the manufacturer's recommendations. Briefly, proteolysis of 1 mmol/L FALGPA by 2 U/mL bacterial collagenase type VII (Sigma‐Aldrich Corp, St. Louis, MO) in reaction buffer (50 mmol/L Tricine; 10 mmol/L CaCl2; 400 mmol/L NaCl) was monitored spectrophotometrically (345 nm) for 5 minutes, in the presence of CM352, phenanthroline, or vehicle.

interleukin‐6 = assay: Plasma interleukin‐6 ELISA after ICH; type: in vivo, rat; conditions: 1 mg/kg iv 1 hour after collagenase; 3 hours, P<0.05 vs control
Description: (§1) Blood samples (0.5 mL) were drawn from the tail vein before surgery, immediately after surgery, and at 1 hour, 3 hours, 24 hours, and 14 days. Citrate or EDTA plasma was obtained by centrifugation, and samples were stored at −80°C. Enzyme‐linked immunosorbent assay was used to measure interleukin‐6 (IL‐6, ref. KRC0061, Life Technologies, Thermo Fisher Scientific, Waltham, MA), cellular fibronectin (ref. MBS007311, MyBioSource, San Diego, CA), and thrombin‐antithrombin complex (Enzygnost TAT, ref. OWMG15, Siemens Healthcare, Erlangen, Germany) in plasma, as biomarkers of inflammation, cellular damage, and hypercoagulability, respectively. The intra‐assay and interassay coefficients of variation for all molecular markers were <10%.

[2] = tested on: thrombin‐antithrombin complex; assay: Plasma thrombin‐antithrombin complex ELISA after ICH; type: in vivo, rat; conditions: 1 mg/kg iv after ICH; data not shown
Description: as §1

[3] = tested on: apoptotic cells in perihematomal area; assay: TUNEL analysis of apoptotic cells in perihematomal area; type: in vivo, rat; conditions: 14 days after ICH, n=3
Description: After the completion of the neuroimaging study, 14 days after ICH, animals were euthanized by an overdose of anesthetic (sevoflurane 8%) and perfused with PBS and 4% formaldehyde. The brain was removed, axially sliced (2 mm thick), fixed in 4% formaldehyde (4 hours), transferred to 20% sucrose in PBS (4°C), included in optimal cutting temperature compound (Sakura Finetek, Torrance, CA), and stored at −80°C. Slices were cut into 8‐μm‐thick slices using a cryostat (Sakura Finetek Europe BV, Leiden, The Netherlands).
Brain slices were dried at 38°C for 3 hours, and the optimal cutting temperature compound was then removed by washing the slices twice in PBS. Antigen retrieval was performed by immersion of slices in a thermal bath of citrate buffer (pH 6.0) for 20 minutes at 99°C. To detect apoptotic cells, a terminal deoxynucleotidyl transferase dUTP nick end labeling assay was performed. […] Slices were mounted (Polysciences, Eppelheim, Germany) and photographed in a Leica DMI 6000 B microscope with Leica Application Suite Advance Fluorescence software, version 1.0.0 (LAS AF; Leica Microsystems, Wetzlar, Germany).
A quantitative analysis of terminal deoxynucleotidyl transferase dUTP nick end labeling was performed using 3 animals from each group. […] Positive nuclei were counted manually.

[4] = Prothrombin time in plasma after ICH; type: in vivo, rat; conditions: percentage of the standard value, n=3
Description: Prothrombin time (PT) and activated partial thromboplastin time (aPTT) were measured with STA‐Neoplastin R and PTT reagents (STA‐Compact, Stago, Barcelona, Spain). PT results were expressed as percentage of the standard value, and aPTT results were expressed in seconds.

[5] = tested on: mouse model of tail bleeding; design: method as in PMID 25686022; conditions: CM352 0.01 mg/kg; cited from earlier work
[6] = tested on: wide panel of metalloenzymes, including cathepsins, caspases, kalikreins, and neutrophil proteases; design: method as in PMID 25686022; conditions: cited from earlier work

CNC(=O)c1ccc(Oc2ccc(S(=O)(=O)[C@]3(C(=O)NO)CCC4(CCNCC4)C3)cc2)cc1 [CM352, 4‐[4‐[[(3R)‐3‐(Hydroxycarbamoyl)‐8‐azaspiro[4.5]decan‐3‐yl]sulfonyl]phenoxy]‐N‐methylbenzamide]
fraction unbound (Plasma protein binding): 0.4 | IC50 [1]: > 10 µM | circulating IL‐6 levels (interleukin‐6): significant reduction | thrombin‐antithrombin complex levels versus control [2]: no differences | apoptosis (TUNEL‐positive cells) in the perihematomal area versus control [3]: No effects on apoptosis | PT ([4]; 3 H): 62.0±2.6% | PT ([4]; 5 H): 63.7±4.0% | PT ([4]; 24 H): 65.1±7.6% | PT ([4]; Basal): 62.7±5.1% | antihemorrhagic efficiency [5]: more potent agent | off‐target effect on metalloenzyme panel [6]: no significant effect
